According to US7799747B2, “Method of reducing surfactant damage using compositions comprising benefit agents of defined high polarity” (Conopco, Inc., priority 2005, dated 2010):

Experiments:
[1] = system: pig skin; experiment: HPLC test for surfactant deposition onto pig skin after wash; details: SDS measured in combination with the benefit agent
[2] = target: BSA (Bos taurus, UniProt P02769); experiment: Micro-DSC for protein denaturation; details: denaturation enthalpy approaching zero, FIG. 5
BSA, sequence (P02769 25-607): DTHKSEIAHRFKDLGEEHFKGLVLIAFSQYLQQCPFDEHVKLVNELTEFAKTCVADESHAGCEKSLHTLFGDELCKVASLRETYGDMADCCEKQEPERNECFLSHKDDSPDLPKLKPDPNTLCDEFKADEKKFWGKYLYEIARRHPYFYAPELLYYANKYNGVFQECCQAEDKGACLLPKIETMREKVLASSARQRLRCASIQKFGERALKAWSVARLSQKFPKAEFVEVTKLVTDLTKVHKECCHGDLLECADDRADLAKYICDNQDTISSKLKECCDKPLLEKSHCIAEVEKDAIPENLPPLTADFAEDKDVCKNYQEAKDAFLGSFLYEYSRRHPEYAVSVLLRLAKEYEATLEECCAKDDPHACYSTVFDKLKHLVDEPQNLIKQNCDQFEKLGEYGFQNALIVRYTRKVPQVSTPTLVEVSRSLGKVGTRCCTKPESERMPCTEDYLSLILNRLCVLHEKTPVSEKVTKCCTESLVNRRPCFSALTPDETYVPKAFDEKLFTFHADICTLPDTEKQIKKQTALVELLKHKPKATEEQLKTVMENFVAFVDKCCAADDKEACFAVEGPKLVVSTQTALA

[3] = target: BSA (Bovine Serum Albumin) (Bos taurus, UniProt P02769); experiment: Conductivity test: surfactant binding to BSA protein; details: 10% SDS with 10% oil (1:1), 0.5% BSA in 0.02M acetate buffer pH~5.2, room temperature
BSA (Bovine Serum Albumin), sequence (P02769 25-607): as above
Method: Conductance measurements were carried out at room temperature by use of a Thermo conductivity meter, model Orion 150+. Routinely, the titrations were performed by adding a controlled amount of 10% of stock surfactant solution under magnetic stirring into the 0.5% BSA (Bovine Serum Albumin) in 0.02M acetate buffer at pH˜5.2. Values of CMC (critical micellization concentration), CAC (critical aggregation concentration) and protein saturation point (PSP) were defined by the changing of the slope of the conductivity vs. surfactant concentration plots. The number of surfactants binding to each protein can be calculated by: {[PSP]−[CAC]}/{[protein]/Mwprotein}, where [protein] is the protein concentration.
In order to show the effect of benefit agent having different polarity on binding to protein molecule (a reflection of the harshness of surfactant; more surfactant binding to protein equal harsher and more damage expected), applicants tested surfactant binding of (1) surfactant alone and (2) of surfactant in combination with various oils/cosolvents (at 1:1 surfactant to oil ratio) to see level of (how many) surfactants binding per protein molecule (e.g., BSA) at saturation. The tests were done using conductivity test described in protocol and results are set forth below in Table 1.
Applicants conducted same test as in Examples 1 to 10, but used SLES/CAPB surfactant system instead of SDS.

| Compound | SDS deposition versus SDS alone (FIG. 1) [1] | ratio surfactant to protein at which BSA is fully denatured at room temperature [2] | Saturated binding: No. of surfactant per BSA at saturation [3] |
| --- | --- | --- | --- |
| CCCCCCCCCCCC [dodecane] | deposition was about the same or higher |  |  |
| CCCCCCCCCCCCOS(=O)(=O)[O-].[Na+] [10% SDS, Sodium dodecyl sulfate] |  | about 1.2 | 220 |
